ChEMBL document CHEMBL4706560, “Design, synthesis and biological evaluation of indole-2-one derivatives as potent BRD4 inhibitors” (Eur J Med Chem, 2020)

Tests used:
[1] = target: T1, Bromodomain-containing protein 4 (Homo sapiens, UniProt O60885); assay: Inhibition of BRD4 BD1 (unknown origin) preincubated for 15 mins followed by peptide addition and measured after 60 mins by TR-FRET assay
[2] = target: T2, Bromodomain-containing protein 2 (Homo sapiens, UniProt P25440); assay: Inhibition of BRD2 BD1 (unknown origin) preincubated for 15 mins followed by peptide addition and measured after 60 mins by TR-FRET assay
T2 sequence (P25440 whole entry): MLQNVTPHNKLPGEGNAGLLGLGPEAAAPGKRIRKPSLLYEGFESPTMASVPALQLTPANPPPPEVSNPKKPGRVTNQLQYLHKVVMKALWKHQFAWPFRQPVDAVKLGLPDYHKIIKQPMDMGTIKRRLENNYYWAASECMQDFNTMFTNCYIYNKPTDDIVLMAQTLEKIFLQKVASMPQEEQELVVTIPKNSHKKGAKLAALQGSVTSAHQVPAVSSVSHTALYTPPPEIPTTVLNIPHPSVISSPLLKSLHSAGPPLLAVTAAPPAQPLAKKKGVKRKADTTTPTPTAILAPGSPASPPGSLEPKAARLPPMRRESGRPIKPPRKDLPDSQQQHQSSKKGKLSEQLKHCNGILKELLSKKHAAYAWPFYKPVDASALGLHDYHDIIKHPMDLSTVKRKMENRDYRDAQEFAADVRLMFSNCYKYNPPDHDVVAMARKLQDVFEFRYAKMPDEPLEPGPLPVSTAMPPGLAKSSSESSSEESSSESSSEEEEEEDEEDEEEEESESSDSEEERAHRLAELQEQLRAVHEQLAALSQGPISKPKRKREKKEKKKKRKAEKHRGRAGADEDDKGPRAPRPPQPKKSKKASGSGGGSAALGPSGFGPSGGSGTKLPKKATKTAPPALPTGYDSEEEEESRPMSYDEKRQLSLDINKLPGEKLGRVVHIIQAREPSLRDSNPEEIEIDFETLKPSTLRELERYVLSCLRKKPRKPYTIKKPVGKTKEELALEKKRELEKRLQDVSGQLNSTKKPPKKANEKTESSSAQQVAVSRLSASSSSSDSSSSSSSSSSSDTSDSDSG

[3] = target: T1, Bromodomain-containing protein 4; assay: Inhibition of BRD4 BD2 (unknown origin) preincubated for 15 mins followed by peptide addition and measured after 60 mins by TR-FRET assay
[4] = target: T2, Bromodomain-containing protein 2; assay: Inhibition of BRD2 BD2 (unknown origin) preincubated for 15 mins followed by peptide addition and measured after 60 mins by TR-FRET assay
HT-29 = assay: Antiproliferative activity against human HT29 cells incubated for 72 hrs by MTT assay; conditions: HT-29, 72 h
WI-38 = assay: Antiproliferative activity against human WI-38 cells incubated for 72 hrs by MTT assay; conditions: WI-38, 72 h
HL-60 = assay: Antiproliferative activity against human HL60 cells incubated for 72 hrs by CCK8 assay; conditions: HL-60, 72 h
[5] = Apparent clearance during terminal phase in Wistar rat at 15 mg/kg, po measured up to 24 hrs by LC-MS/MS analysis; type: ADME, organism-based; conditions: in vivo, read-out: CLz/F (converted)
[6] = Tmax in Wistar rat at 15 mg/kg, po measured up to 24 hrs by LC-MS/MS analysis; type: ADME, organism-based; conditions: in vivo
[7] = AUC(0 to infinity) in Wistar rat at 15 mg/kg, po measured up to 24 hrs by LC-MS/MS analysis; type: ADME, organism-based; design: route oral, dose 15 mg/kg, time <=24; conditions: in vivo
[8] = AUC(0 to t) in Wistar rat at 15 mg/kg, po measured up to 24 hrs by LC-MS/MS analysis; type: ADME, organism-based; design: route oral, dose 15 mg/kg, time <=24; conditions: in vivo
[9] = Half life in Wistar rat at 15 mg/kg, po measured up to 24 hrs by LC-MS/MS analysis; type: ADME, organism-based; conditions: in vivo
[10] = Cmax in Wistar rat at 15 mg/kg, po measured up to 24 hrs by LC-MS/MS analysis; type: ADME, organism-based; design: route oral, dose 15 mg/kg, time <=24; conditions: in vivo
[11] = AUC(0 to t) in Wistar rat at 5 mg/kg, iv measured up to 24 hrs by LC-MS/MS analysis; type: ADME, organism-based; design: route intravenous, dose 5 mg/kg, time <=24; conditions: in vivo
[12] = AUC(0 to infinity) in Wistar rat at 5 mg/kg, iv measured up to 24 hrs by LC-MS/MS analysis; type: ADME, organism-based; design: route intravenous, dose 5 mg/kg, time <=24; conditions: in vivo
[13] = Half life in Wistar rat at 5 mg/kg, iv measured up to 24 hrs by LC-MS/MS analysis; type: ADME, organism-based; conditions: in vivo
[14] = Apparent clearance during terminal phase in Wistar rat at 5 mg/kg, iv measured up to 24 hrs by LC-MS/MS analysis; type: ADME, organism-based; conditions: in vivo
[15] = Oral bioavailability in Wistar rat at 15 mg/kg measured up to 24 hrs by LC-MS/MS analysis; type: ADME, organism-based; conditions: in vivo

## C/C=C1\C(=O)Nc2ccc(NS(=O)(=O)c3ccccc3OC)cc21
[1]
  IC50: 36 nM

## CC/C=C1\C(=O)Nc2ccc(NS(=O)(=O)c3ccccc3OC)cc21
[1]
  IC50: 114 nM

## CC(C)=C1C(=O)Nc2ccc(NS(=O)(=O)c3cc(F)ccc3F)cc21
[1]
  IC50: 56 nM

## COc1ccc(S(=O)(=O)Nc2ccc3c(c2)C(=C(C)C)C(=O)N3)cc1
[1]
  IC50: 94 nM

## CC(C)=C1C(=O)Nc2ccc(NS(=O)(=O)c3cc(C)ccc3F)cc21
[1]
  IC50: 20 nM

## COc1ccccc1S(=O)(=O)Nc1ccc2c(c1)C(=C1CCC1)C(=O)N2
[1]
  IC50: 26 nM

## COc1ccc(C)cc1S(=O)(=O)Nc1ccc2c(c1)C(=C(C)C)C(=O)N2
[1]
  IC50: 30 nM

## CC(C)=C1C(=O)Nc2ccc(NS(=O)(=O)c3cccc4ccccc34)cc21
[1]
  IC50: 62 nM

## CC(C)=C1C(=O)Nc2ccc(NS(=O)(=O)c3ccccc3Br)cc21
[1]
  IC50: 25 nM
[2]
  IC50: 40 nM
[3]
  IC50: 43 nM
[4]
  IC50: 25 nM

## CC(C)=C1C(=O)Nc2ccc(NS(=O)(=O)c3cccc4c(N(C)C)cccc34)cc21
[1]
  IC50: 208 nM

## CC(C)=C1C(=O)Nc2ccc(NS(=O)(=O)C3CCCCC3)cc21
[1]
  IC50: 22 nM

## CC(C)=C1C(=O)Nc2ccc(NS(=O)(=O)c3ccc4c(c3)CCO4)cc21
[1]
  IC50: 92 nM

## COc1ccc(Br)cc1S(=O)(=O)Nc1ccc2c(c1)C(=C(C)C)C(=O)N2
[1]
  IC50: 23 nM
[2]
  IC50: 39 nM
[3]
  IC50: 21 nM
[4]
  IC50: 22 nM

## COc1ccc(F)cc1S(=O)(=O)Nc1ccc2c(c1)C(=C(C)C)C(=O)N2
[1]
  IC50: 34 nM

## Cc1sc2c(c1C)C(c1ccc(Cl)cc1)=N[C@@H](CC(=O)OC(C)(C)C)c1nnc(C)n1-2
HT-29
  IC50: 480 nM
WI-38
  IC50: 4970 nM
HL-60
  IC50: 160 nM

## COc1ccccc1S(=O)(=O)Nc1ccc2c(c1)C(=C(C)C)C(=O)N2
[5]
  CL/F: 17.2 mL/min/kg
[6]
  Tmax: 1 h
[7]
  AUC(0-inf): 14600 ng·h/mL
[8]
  AUC(0-t) at 24 h: 14400 ng·h/mL
[9]
  half-life: 3.59 h
[2]
  IC50: 24 nM
[4]
  IC50: 18 nM
[10]
  Cmax: 2180 ng/mL
[11]
  AUC(0-t) at 24 h: 7300 ng·h/mL
[12]
  AUC(0-inf): 7340 ng·h/mL
[13]
  half-life: 1.56 h
[14]
  CLz/F: 11.3 mL/min/kg
[15]
  bioavailability: 66%

## CC(C)=C1C(=O)Nc2ccc(NS(=O)(=O)c3ccc4ccccc4c3)cc21
[1]
  IC50: 203 nM

## COc1ccccc1S(=O)(=O)Nc1ccc2c(c1)CN(C)C(=O)N2
HT-29
  IC50: 14700 nM
WI-38
  IC50: 19800 nM
HL-60
  IC50: 3990 nM
